Results from patent publication EP2841543B1, “IMPROVEMENTS RELATING TO FABRIC FRESHNESS” (Unilever PLC, priority 2012, dated 2013).

Assay: Production and decomposition of squalene hydroperoxides with Rose Bengal and metal ion catalyst, monitored by HPLC
Protocol: Aldrich), 10 ml of acetone and 200 µl of Rose Bengal solution (2 mg/ml). Rose Bengal (4,5,6,7-tetrachloro-2',4',5',7'-tetraiodofluorescein) is a singlet-oxygen photobleach. Air was bubbled through the solution over the whole of the 3 hour monitoring period without the metal ion catalyst, under irradiation by a xenon lamp to simulate day-light. […] The reaction monitored by HPLC using via UV. detection at 230 nm and 260 nm and actonitrile was the mobile phase. The first HPLC measurement taken was at t=0 (before addition of Rose Bengal). Typically the squalene peak was eluted at 15 minutes, and the hydroperoxides eluted at times between 2-10 minutes. For the purpose of the experiment the hydroperoxide peaks at 3 and 5.7 minutes after starting the column were monitored for any change in relative peak height.

[1] = time 1.5 h, RB None, IronMeN4py Yes (5 mg catalyst added after 90 minutes)
[2] = time 1.0 h, RB Yes, IronMeN4py None, squalene in acetone, air, xenon lamp, 10 °C
[3] = time 3.0 h, RB Yes, IronMeN4py None, squalene in acetone, air, xenon lamp, 10 °C

Question: With `CC(c1ccccn1)(c1ccccn1)N(Cc1ccccn1)Cc1ccccn1.[Cl-].[Cl-].[Fe+2]` [IronMeN4py, iron(II) N,N-bis(pyridine-2-yl-methyl)-1,1-bis(pyridine-2-yl)-1-aminoethane dichloride] as the compound, how does the “Relative Peak Height at t=3 minutes” value [1] read?
Answer: 0

Question: What about the “Relative Peak Height at t=5.7 minutes” value [1] of the same compound?
Answer: 300

Question: What does the source list for `O=C1OC2(c3cc(I)c(O)c(I)c3Oc3c2cc(I)c(O)c3I)c2c(Cl)c(Cl)c(Cl)c(Cl)c21` [RB, 4,5,6,7-tetrachloro-2',4',5',7'-tetraiodofluorescein]?
Answer: Relative Peak Height at t=3 minutes [2]: 600; Relative Peak Height at t=5.7 minutes [2]: 2100; Relative Peak Height at t=3 minutes [3]: 2000; Relative Peak Height at t=5.7 minutes [3]: 2100
